Measurements: PubChem BioAssay (NCI)
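Method: 48-hour compound exposure of cells in 96-well plates, five concentrations, linear interpolation of endpoints. GI50 is the concentration that inhibits growth by half. At the TGI there is no net growth.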

Columns and labels:
Test in all cases: DTP human tumour cell line panel, 48 h
HOP-92 NSCLC = system: HOP-92 NSCLC
RPMI-8226 leukemia = system: RPMI-8226 leukemia
U251 CNS = system: U251 CNS
SNB-75 CNS = system: SNB-75 CNS
A498 renal = system: A498 renal
786-0 renal = system: 786-0 renal
LOX IMVI melanoma = system: LOX IMVI melanoma
HL-60(TB) leukemia = system: HL-60(TB) leukemia
IGROV1 ovarian = system: IGROV1 ovarian
UACC-62 melanoma = system: UACC-62 melanoma

Structure (SMILES) | GI50 (HOP-92 NSCLC) [µM] | TGI (HOP-92 NSCLC) [µM] | GI50 (RPMI-8226 leukemia) [µM] | TGI (RPMI-8226 leukemia) [µM] | GI50 (U251 CNS) [µM] | TGI (U251 CNS) [µM] | GI50 (SNB-75 CNS) [µM] | TGI (SNB-75 CNS) [µM] | GI50 (A498 renal) [µM] | TGI (A498 renal) [µM] | GI50 (786-0 renal) [µM] | TGI (786-0 renal) [µM] | GI50 (LOX IMVI melanoma) [µM] | TGI (LOX IMVI melanoma) [µM] | GI50 (HL-60(TB) leukemia) [µM] | TGI (HL-60(TB) leukemia) [µM] | GI50 (IGROV1 ovarian) [µM] | TGI (IGROV1 ovarian) [µM] | GI50 (UACC-62 melanoma) [µM] | TGI (UACC-62 melanoma) [µM]
Cn1cc(-c2ccc(=O)n(Cc3cccc(-c4ncc(OCCN5CCOCC5)cn4)c3)n2)cn1 | 34.9 | > 100 | 34 | > 100 | 92.1 | > 100 | > 42.5 | > 100 | 60.1 | > 100 | > 100 | > 100 | > 100 | > 100 | 74.1 | > 100 | > 76.6 | > 100 | 48.7 | > 100
COc1cccc(NC(=O)c2sc3nc4c(cc3c2N)CCCC4)c1 | 0.598 | 24.7 | 0.396 | 78.3 | 0.607 | 19.2 | 0.271 | 2.77 | 0.349 | 14.2 | 0.42 | 19.2 | 0.729 | > 100 | 0.228 | 0.765 | 4.1 | > 100 | 0.391 | > 100
CCCCCCCCCCCCc1ccc(C(=O)/C=C/C(=O)O)cc1 | 1.95 | 5.78 | 2.11 | 6.75 | 5.63 | 18.9 | 1.66 | 10.4 | 13.2 | 26.7 | 2.03 | 4.05 | 1.45 | 2.81 | 1.56 | 3.58 | 1.95 | 3.86 | 1.71 | 3.66
Cc1cc(Br)cc(C)c1NC(=O)C(=O)CC(=O)c1sc(-n2nc(-c3ccccc3)cc2-c2ccccc2)nc1C | – | > 100 | – | > 100 | – | > 100 | – | > 100 | – | > 100 | – | > 100 | – | > 100 | – | > 100 | – | > 100 | – | > 100
O=C1C2CC(Cl)C(SSC3CC4C(=O)N(SC(Cl)(Cl)C(Cl)Cl)C(=O)C4CC3Cl)CC2C(=O)N1SC(Cl)(Cl)C(Cl)Cl (stereo not given) | – | 3 | – | 5.35 | – | 3.75 | – | 6.12 | – | 7.73 | – | 3.65 | – | 3.03 | – | 1.83 | – | 3.06 | – | 4.49
COc1ccccc1C(=O)/C=C/c1cc2cccc(OC)c2[nH]c1=O | 0.115 | 2.07 | < 0.0181 | 1.42 | 0.0319 | 1.5 | 0.0191 | 3.6 | 0.0158 | 0.0788 | 0.0401 | 1.38 | 0.0262 | 0.724 | 0.0144 | 0.0583 | 0.0523 | 2.36 | 0.0412 | 1.93
COc1ccc(N(C)c2nc(C)nc3ccccc23)cc1 | < 0.01 | 4.94 | < 0.01 | 18 | < 0.01 | > 100 | < 0.01 | > 100 | < 0.01 | < 0.01 | < 0.01 | 55.7 | < 0.01 | > 51.4 | < 0.01 | < 0.01 | < 0.01 | > 100 | < 0.01 | > 49.6
COc1c(OC(C)=O)ccc(/C=C2\N=C(C)OC2=O)c1[N+](=O)[O-] | – | > 100 | – | > 100 | – | > 100 | – | > 100 | – | > 100 | – | > 100 | – | > 100 | – | > 100 | – | > 100 | – | > 100
O=C(c1cccs1)c1c(C(F)(F)F)n([O-])c2ccc(C(F)(F)F)cc2[n+]1=O | 0.152 | 0.321 | 0.279 | 1.12 | 0.179 | 0.322 | 0.502 | 1.21 | 1.65 | 3.04 | 0.188 | 0.339 | 0.0571 | 0.127 | 0.145 | 0.526 | 0.132 | 0.278 | 0.34 | 1.08
C/C(=N\NC(=S)Nc1ccc(C(=O)O)cc1)c1ccccn1 | – | > 100 | – | 76.6 | – | 58.3 | – | 40 | – | 50.7 | – | 43.3 | – | > 100 | – | 52.5 | – | 85.8 | – | 21.9
Nc1nc(N)[n+]([O-])c(N)c1NCO | – | > 100 | – | > 100 | – | > 100 | – | > 100 | – | > 100 | – | > 100 | – | > 100 | – | > 100 | – | > 100 | – | > 100
